# Assays:
# [1] = tested on: metal ions in retinal drusen; experiment: Post mortem retina screening, ZP1 zinc labeling of Bruch membrane; details: 15 hours incubation; TPEN 100 μM, PB-1033 100 and 250 μM; 10 μM ZP1
# Method: Post Mortem Screening The BAS assay is adopted for post mortem retina. Using a trephine, 6 mm diameter regions of peripheral retina from frozen donor eyes are dissected. Following defrosting, the neuronal retina and the RPE cells are removed by gentle agitation in PBS buffer. Following removal of the RPE cells, strips of the Bruch membrane are cut from the eye. 4 samples are prepared: 1) Control […] Samples are then washed 3 times and the labeling visualized using a fluorescence and confocal microscope. A repeat of this procedure is performed with the exception that samples are incubated for a period of 15 hours before washing to determine differential metal binding over this longer period. The test results are in the form of fluorescence imaging from a confocal microscope of the 4 samples tested in this Example after 15 hours of sample incubation. […] Fluorescence microscopic photographs (which are in colour) are available upon request from the […].
# Aβ deposits = details: daily oral gavage 30 mg/kg, 9 weeks, 13-14 months old transgenic mice
# [2] = tested on: M17 human neuroblastoma cells; experiment: Cytotoxicity, M17 human neuroblastoma cells; type: cell-based
# Method: Assay 3. MTS Assay for Cell Viability
# Cell viability is determined using the MTS assay. Culture medium is replaced with fresh neurobasal medium plus B27 supplements minus antioxidants. 1/10th volume MTS solution (Cell Titre 96 Aqueous One, Promega Corporation) and incubated at 37° C., 2 hrs. 200 microliter aliquots are measured with a spectrophotometer at 560 nm.
# [3] = tested on: dityrosine oligomerization; experiment: CuTy: inhibition of dityrosine oligomerization; type: biochemical; details: referenced to in-house standard (set as 100% inhibition)
# [4] = tested on: Abeta in extract of post-mortem human AD brain tissue; experiment: BAS: human brain amyloid solubilization assay; type: biochemical; details: max effect across the concentration range, referenced to baseline PBS
# How it was run: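 Plaque-bearing post-mortem AD cortex homogenised in ice-cold PBS pH 7.4; soluble Aβ in 100,000×g supernatant, insoluble Aβ from resuspended pellet. Fractions run on Tris-Tricine SDS-PAGE, immunoblotted with W02, densitometry against synthetic Aβ40 standards.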
# [5] = tested on: primary cortical neuronal cultured cells; experiment: Test compound cytotoxicity, MTS assay, primary cortical neuronal cultures; type: cell-based, mouse
# How it was run: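 Primary cortical neurons were cultured five days in Neurobasal/B27, then exposed on day six to compounds (from 2.5 mM DMSO stocks) in medium minus antioxidants, in triplicate for 4 days at 37° C. Viability was measured by MTS, 2 h at 37° C, absorbance at 560 nm.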
# [6] = Toxicity, visual observations in mice; details: 30 mg/kg; duration and visual observations
compound,measurement,setting,value
CN(C)Cc1ccc2c(Cl)cc(Cl)c(O)c2n1.Cl [PB 1033],ZP1 (zinc sensor) labeling of post mortem Bruch membrane,[1],inhibited ZP1 labeling
same,Tg Mice % difference from control in Amyloid plaque abundance,Aβ deposits,−42%
same,Tg Mice % difference from control in insoluble brain amyloid burden,Aβ deposits,−29%
same,Tg Mice % difference from control in soluble brain amyloid burden,Aβ deposits,−37%
same,Cytotox (% viable) M17 cells at 1 μM,[2]; 1 μM test compound,94%
same,Cytotox (% viable) M17 cells at 10 μM,[2]; 10 μM test compound,54.3%
same,CuTy % inhibition of dityrosine oligomerization,[3],100%
same,BAS max effect,[4],470%
same,Cytotox (% viable) Neuronal cells at 1 μM,[5]; 1 μM test compound,84%
same,Cytotox (% viable) Neuronal cells at 10 μM,[5]; 10 μM test compound,72%
same,Toxicity at 30 mg/kg,[6],"10 days, none"
